The values that follow come from PubChem BioAssay AID330 (DTP/NCI, 2004).

Each structure is given as a SMILES string. Values joined by “and” are separate entries in the source; they are usually repeats but may differ in a detail not shown here. Equal entries are not always repeated. Toxic doses and inconclusive results are not listed.

The test system of this experiment is P388 leukemia ip, CD2F1 mice, survival T/C. Description: NCI In Vivo Anticancer Drug Screen. Data for tumor model P388 Leukemia (intraperitoneal) in CD2F1 (CDF1) mice. The following applies: endpoint: median survival time, higher = longer survival. Summed up:
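Mice carrying the transplanted tumor received test compound or vehicle. Survival was recorded in each group, and the value is the treated-group measurement divided by that of the vehicle-treated control group.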

The mark [1] stands for this setting: dose: 60.0 mg/kg/injection, schedule: Q01DX005 (ip), vehicle: saline.
The mark [2] stands for this setting: dose: 120.0 mg/kg/injection, schedule: Q01DX005 (ip), vehicle: saline.
Setting [3] is: dose: 240.0 mg/kg/injection, schedule: Q01DX005 (ip), vehicle: saline.
The mark [4] stands for this setting: dose: 50.0 mg/kg/injection, schedule: Q01DX005 (ip), vehicle: saline with Tween-80.
[5] abbreviates: dose: 100.0 mg/kg/injection, schedule: Q01DX005 (ip), vehicle: saline with Tween-80.
[6] abbreviates: dose: 200.0 mg/kg/injection, schedule: Q01DX005 (ip), vehicle: saline with Tween-80.
Where [7] appears, read: dose: 25.0 mg/kg/injection, schedule: Q01DX009 (ip), vehicle: other.
Setting [8] is: dose: 100.0 mg/kg/injection, schedule: Q01DX009 (ip), vehicle: other.
Where [9] appears, read: dose: 200.0 mg/kg/injection, schedule: Q01DX009 (ip), vehicle: other.
Where [10] appears, read: dose: 60.0 mg/kg/injection, schedule: Q01DX005 (ip), vehicle: saline with Tween-80.
Where [11] appears, read: dose: 120.0 mg/kg/injection, schedule: Q01DX005 (ip), vehicle: saline with Tween-80.
Where [12] appears, read: dose: 240.0 mg/kg/injection, schedule: Q01DX005 (ip), vehicle: saline with Tween-80.
[13] abbreviates: dose: 120.0 mg/kg/injection, schedule: Q01DX005 (ip), vehicle: Klucel (hydroxypropylcellulose) (HPC).
Setting [14] is: dose: 50.0 mg/kg/injection, schedule: Q01DX009 (ip), vehicle: Klucel (hydroxypropylcellulose) (HPC).
[15] abbreviates: dose: 100.0 mg/kg/injection, schedule: Q01DX009 (ip), vehicle: Klucel (hydroxypropylcellulose) (HPC).
Setting [16] is: dose: 200.0 mg/kg/injection, schedule: Q01DX009 (ip), vehicle: Klucel (hydroxypropylcellulose) (HPC).
Setting [17] is: dose: 12.5 mg/kg/injection, schedule: Q01DX005 (ip), vehicle: saline with Tween-80.
Where [18] appears, read: dose: 25.0 mg/kg/injection, schedule: Q01DX005 (ip), vehicle: saline with Tween-80.

For `O=C(NO)/C(CC(=O)c1ccccc1O)=N\O`, the T/C under setting [1] was 100 % of control, the T/C under setting [2] is 111 % of control and the T/C under setting [3] is 103 % of control.

Consider `N#CN1C2CCC1CC(O)(c1ccccc1)C2` (stereo not drawn), for which the T/C is, setting by setting: under setting [4], 104 % of control and 99 % of control; under setting [5], 102 % of control; under setting [6], 103 % of control.

Regarding `COC(=O)C(NC(=O)C(Cc1c[nH]c2ccccc12)NC(=O)OC(C)(C)C)C(C)C` (stereo not drawn), the T/C runs as follows: (dose: 12.5 mg/kg/injection, schedule: Q01DX009 (ip), vehicle: other) 96 % of control; under setting [7], 90 % of control; (dose: 50.0 mg/kg/injection, schedule: Q01DX009 (ip), vehicle: other) 91 % of control; under setting [8], 109 % of control; under setting [9], 114 % of control.

Take `COc1cc(/C=N\Nc2ccccc2[N+](=O)[O-])cc(OC)c1OC`: the T/C was 87 % of control (dose: 100.0 mg/kg/injection, schedule: Q04DX003 (ip), vehicle: saline with Tween-80); 87 % of control (dose: 200.0 mg/kg/injection, schedule: Q04DX003 (ip), vehicle: saline with Tween-80); 91 % of control (dose: 400.0 mg/kg/injection, schedule: Q04DX003 (ip), vehicle: saline with Tween-80).

Take `O=C(CNC(=O)NCc1ccco1)NNC(=O)Nc1ccc(F)c(Cl)c1`: the T/C is, setting by setting: under setting [10], 101 % of control; under setting [11], 106 % of control; under setting [12], 110 % of control.

As for `CCOC(=O)Nc1cc(NC(C)/C(=N/O)c2ccccc2)c([N+](=O)[O-])c(N)n1` (stereo not drawn), the T/C (dose: 60.0 mg/kg/injection, schedule: Q01DX005 (ip), vehicle: Klucel (hydroxypropylcellulose) (HPC)) was 157 % of control and 176 % of control; the T/C under setting [13] was 166 % of control and 186 % of control; the T/C (dose: 240.0 mg/kg/injection, schedule: Q01DX005 (ip), vehicle: Klucel (hydroxypropylcellulose) (HPC)) is 174 % of control and 180 % of control.

With `CS(=O)(=O)/C=C/c1cccc(O)c1`, the T/C under setting [14] is 97 % of control, the T/C under setting [15] was 96 % of control and the T/C under setting [16] is 89 % of control.

Turning to `O=C(c1ccccc1)C12CCC3CC(CC(C3)C1)C2`, the T/C was 100 % of control under setting [14], 99 % of control under setting [15] and 100 % of control under setting [16].

As for `CCN(CC)C(C)=S`, the T/C is 103 % of control under setting [10], 110 % of control under setting [11] and 104 % of control under setting [12].

Regarding `COc1ccc(CCN(C=O)CCc2ccc(OC)c(OC)c2)cc1OC`, the T/C runs as follows: under setting [7], 97 % of control; under setting [8], 109 % of control; under setting [9], 101 % of control; (dose: 400.0 mg/kg/injection, schedule: Q01DX009 (ip), vehicle: other) 103 % of control.

Regarding `CC(=O)N/N=C/C(C)(C)C(C)(C)/C=N/NC(C)=O`, the T/C under setting [13] is 153 % of control.

As to `CCC[n+]1noc(N)n1`, the T/C is 97 % of control (dose: 3.13 mg/kg/injection, schedule: Q01DX009 (ip), vehicle: water); 99 % of control (dose: 6.25 mg/kg/injection, schedule: Q01DX009 (ip), vehicle: water); 90 % of control (dose: 12.5 mg/kg/injection, schedule: Q01DX009 (ip), vehicle: water); 97 % of control (dose: 25.0 mg/kg/injection, schedule: Q01DX009 (ip), vehicle: water); 106 % of control (dose: 50.0 mg/kg/injection, schedule: Q01DX009 (ip), vehicle: water); 106 % of control (dose: 100.0 mg/kg/injection, schedule: Q01DX009 (ip), vehicle: water).

Take `O=P1(c2ccccc2)C=C(c2ccccc2)NC(c2ccccc2)=C1`: the T/C was 93 % of control under setting [4] and 90 % of control under setting [6].

As for `CC(C)(C#N)NCCNC(C)(C)C#N`, the T/C runs as follows: (dose: 6.25 mg/kg/injection, schedule: Q01DX001 (ip), vehicle: saline) 108 % of control; (dose: 12.5 mg/kg/injection, schedule: Q01DX001 (ip), vehicle: saline) 99 % of control.

On to `OC[P+](CO)(CO)CO`, for which the T/C reads like this: (dose: 6.25 mg/kg/injection, schedule: Q01DX005 (ip), vehicle: saline with Tween-80) 117 % of control and 96 % of control; under setting [17], 114 % of control and 96 % of control; under setting [18], 95 % of control; under setting [4], 104 % of control and 122 % of control.

For the molecule `C=CC[S+]1CCCCC1C=C` (stereo not drawn), the T/C reads like this: (dose: 100.0 mg/kg/injection, schedule: Q01DX001 (ip), vehicle: saline with Tween-80) 94 % of control; (dose: 200.0 mg/kg/injection, schedule: Q01DX001 (ip), vehicle: saline with Tween-80) 95 % of control; (dose: 400.0 mg/kg/injection, schedule: Q01DX001 (ip), vehicle: saline with Tween-80) 95 % of control.

With `O=c1c2cc3ccccc3cc2c(=O)n2n1CC(O)C(Br)C2` (stereo not drawn), the T/C is 101 % of control (dose: 25.0 mg/kg/injection, schedule: Q01DX009 (ip), vehicle: DMSO); 105 % of control (dose: 50.0 mg/kg/injection, schedule: Q01DX009 (ip), vehicle: DMSO); 105 % of control (dose: 100.0 mg/kg/injection, schedule: Q01DX009 (ip), vehicle: DMSO).

With `CC1(C)C(=O)C(C)(C)C1O`, the T/C was 98 % of control (dose: 50.0 mg/kg/injection, schedule: Q01DX009 (ip), vehicle: saline); 95 % of control (dose: 100.0 mg/kg/injection, schedule: Q01DX009 (ip), vehicle: saline); 98 % of control (dose: 200.0 mg/kg/injection, schedule: Q01DX009 (ip), vehicle: saline).

In the case of `O=NN(C(=O)NCCN1CCOCC1)C1CCCCC1`, the T/C reads like this: (dose: 25.0 mg/kg/injection, schedule: Q01DX001 (ip), vehicle: water) 115 % of control; (dose: 50.0 mg/kg/injection, schedule: Q01DX001 (ip), vehicle: water) 100 % of control; (dose: 100.0 mg/kg/injection, schedule: Q01DX001 (ip), vehicle: water) 103 % of control; (dose: 200.0 mg/kg/injection, schedule: Q01DX001 (ip), vehicle: water) 111 % of control; (dose: 400.0 mg/kg/injection, schedule: Q01DX001 (ip), vehicle: water) 117 % of control.

For `C=CCN(CC=C)C1C(O)CCOC1OC` (stereo not drawn), the T/C was 109 % of control and 101 % of control under setting [1]; 107 % of control and 103 % of control under setting [2]; 109 % of control and 102 % of control under setting [3].

Turning to `COc1ccc(C2=C(c3ccccc3)C(=O)C3(c4ccccc4)CC23c2ccc(OC)cc2)cc1` (stereo not drawn), the T/C was 97 % of control (dose: 50.0 mg/kg/injection, schedule: Q01DX005 (ip), vehicle: Klucel (hydroxypropylcellulose) (HPC)); 89 % of control (dose: 100.0 mg/kg/injection, schedule: Q01DX005 (ip), vehicle: Klucel (hydroxypropylcellulose) (HPC)); 92 % of control (dose: 200.0 mg/kg/injection, schedule: Q01DX005 (ip), vehicle: Klucel (hydroxypropylcellulose) (HPC)).

Consider `N=C(N)c1nn(C2OC(CO)C(O)C2O)c2nc[nH]c(=O)c12` (stereo not drawn), for which the T/C was 121 % of control under setting [17] and 124 % of control under setting [18].

Take `O=C1NC(=O)C2(N1)C(=O)c1cccc3cccc2c13` (stereo not drawn): the T/C was 100 % of control (dose: 50.0 mg/kg/injection, schedule: Q01DX009 (ip), vehicle: distilled water + alcohol); 102 % of control (dose: 100.0 mg/kg/injection, schedule: Q01DX009 (ip), vehicle: distilled water + alcohol); 95 % of control (dose: 200.0 mg/kg/injection, schedule: Q01DX009 (ip), vehicle: distilled water + alcohol).

Turning to `COc1cc(C)nc2ccc(Cc3ccc4nc(C)cc(OC)c4c3)cc12`, the T/C (dose: 25.0 mg/kg/injection, schedule: Q04DX003 (ip), vehicle: saline with Tween-80) was 94 % of control and the T/C (dose: 50.0 mg/kg/injection, schedule: Q04DX003 (ip), vehicle: saline with Tween-80) was 91 % of control.

With `COCCN(CCOC)C(C(=O)Cc1ccccc1)c1ccccc1` (stereo not drawn), the T/C was 99 % of control under setting [4], 101 % of control under setting [5] and 103 % of control under setting [6].
